Results: patent US20250213569A1, “METHODS AND COMPOSITIONS FOR MEASURING AND INHIBITING EXONUCLEASE ACTIVITY” (priority 2020, published 2025)
Read-outs that look alike come from different tables or passages of the source.

Tests used:
[1] = system: A549 cells; test: AlamarBlue viability assay; settings: A549 human lung cells, 48 hours
[2] = target: SARS-CoV2 NSP14/NSP10 exonuclease (Severe acute respiratory syndrome coronavirus 2 (2019-nCoV) (SARS-CoV-2), UniProt P0DTD1); test: biochemical; parameters: inhibition of NSP14/NSP10 complex exonuclease activity: dose or concentration left out as unconfirmed; settings: for Inhibitory activity present: class symbols − to +++++, key not given
[3] = target: NSP14/10 complex (Severe acute respiratory syndrome coronavirus 2 (2019-nCoV) (SARS-CoV-2), UniProt P0DTD1); test: Gel electrophoresis assay of Oligo B digestion; assay type: biochemical; settings: for NSP14/NSP10 complex inhibitory potential (gel): concentrations as in FIG. 55
[4] = system: unbound NSP10; test: FRET-based activity assay, non-specific background of unbound NSP10; assay type: biochemical; settings: dose-response, FIG. 11B
[5] = Solubility issue (Table 2)
[6] = system: SARS-CoV2; assay type: cell-based; settings: A549-ACE2 cells; #112: 60 μM, #77: […] μM, #68: 25 μM
[7] = system: HCoV-OC43; test: HCoV-OC43 infection of HMC3 cells, combination with remdesivir; assay type: cell-based; settings: #112: 60 μM, #77: […] μM, #68: 25 μM
[8] = system: A549 cells
[9] = Table 2, read-out: SARS-CoV2 IC50
[10] = Oligo D, linear reaction range, less than 60% of total substrate consumed at readout, read-out: half maximal inhibitory concentration (IC50)

Structure (SMILES): O=C(O)c1ccc2nc(/C=C/c3ccc(O)c(O)c3)ccc2c1O [Compound 99, 2-(3,4-dihydroxystyryl)-5-hydroxyquinoline-6-carboxylic acid]
- Toxicity at IC50 [1]: Yes

Structure (SMILES): CC(C)=CCc1c(O)cc(O)c(C(=O)/C=C/c2ccc(O)cc2)c1O [Compound 71, Desmethylxanthohumol]
- Inhibitory activity present [2]: +++/ ++++
- Toxicity at IC50 [1]: Yes

Structure (SMILES): O=C1Cc2ccccc2C(=O)N1O [Compound 13, 2-Hydroxyisoquinoline-1,3(2H,4H)-dione]
- inhibition of NSP14/NSP10 complex exonuclease activity ([2]; Oligo E (TexasRed-BHQ2)): showed inhibition
- Inhibition of NSP14/10 (Oligo B digestion, gel) ([3]; 500 μM versus 100 μM): greater at higher (500 μM) versus lower (100 μM) concentrations
- inhibition of non-specific background of NSP10 [4]: did not inhibit the non-specific background of NSP10
- Toxicity at IC50 [1]: Yes

Structure (SMILES): CC(C)c1cc(Cc2cc(C(C)C)cc(C(=O)O)c2O)c(O)c(C(=O)O)c1 [Compound 65, 3-[(3-Carboxy-2-hydroxy-5-propan-2-ylphenyl)methyl]-2-hydroxy-5-propan-2-ylbenzoic acid]
- Toxicity at IC50 [1]: no

Structure (SMILES): Oc1ccc(CC2NCCc3cc(O)c(O)cc32)cc1O (stereo not shown) [Compound 54, Tetrahydropapaveroline]
- NSP14/NSP10 complex inhibitory potential (gel) [3]: indeed novel NSP14 inhibitors
- Solubility issue [5]: no
- Toxicity at IC50 [1]: no

Structure (SMILES): CC(C)=CCc1c(O)ccc(C(=O)/C=C/c2ccc(O)cc2)c1O [Compound 77, Isobavachalcone]
- IC50 ([2]; read-out: SARS-CoV2 IC50): 17.4 ± 1.39 µM
- NSP14/NSP10 complex inhibitory potential (gel) [3]: indeed novel NSP14 inhibitors
- lowering of the EC50 values of remdesivir [6]: ~5 fold
- lowering of the EC50 values of remdesivir [7]: ~5 fold
- Toxicity at IC50 [1]: some

Structure (SMILES): CC(C)=CCOc1ccc(/C=C/C(=O)c2ccc(OCC=C(C)C)cc2OCC(=O)O)cc1 [Compound 68, Sofalcone, reference compound]
- IC50 ([2]; read-out: SARS-CoV2 IC50): 22 ± 6.02 µM
- NSP14/NSP10 complex inhibitory potential (gel) [3]: indeed novel NSP14 inhibitors
- lowering of the EC50 values of remdesivir [6]: ~5 fold
- lowering of the EC50 values of remdesivir [7]: ~5 fold
- Toxicity at IC50 [8]: Some

Structure (SMILES): CC(C)=CCc1c(O)ccc(C(=O)/C=C/c2ccc(O)cc2O)c1O [Compound 74, Morachalcone A]
- Toxicity at IC50 [1]: Yes

Structure (SMILES): Cc1c(S(=O)(=O)[O-])oc2c1C(=O)C(=O)c1c-2ccc2c1CCCC2(C)C.[Na+] [Compound 60, Tanshinone IIA sulfonate]
- Solubility issue [5]: no
- Toxicity at IC50 [1]: no

Structure (SMILES): O=c1oc2ccccc2c(O)c1Cc1c(O)c2ccccc2oc1=O [Compound 23, Dicoumarol, reference compound]
- IC50 [2, 9]: > 500 µM

Structure (SMILES): O=C(NCc1ncc[nH]1)c1c(O)cnc2ccccc12 [Compound 31, 3-Hydroxy-N-[(1H-imidazol-2-yl)methyl]quinoline-4-carboxamide]
- Toxicity at IC50 [1]: No

Structure (SMILES): O=c1oc2ccccc2c(O)c1Cc1c(O)c2ccccc2oc1=O [Dicoumarol]
- IC50 [2, 10]: > 500 µM

Structure (SMILES): O=C(c1ccc(F)c(F)c1)c1ccc2ccc(/C=C/c3ccc(O)c(O)c3)nc2c1O [Compound 93, 7-(3,4-difluorobenzoyl)-2-(3,4-dihydroxyvinyl)-8-hydroxyquinoline]
- Toxicity at IC50 [1]: Yes

Structure (SMILES): Oc1ccc(/C=C/c2ccc3cccc(O)c3n2)cc1O [Compound 92, 2-(3,4-dihydroxystyryl)-8-hydroxyquinoline]
- Toxicity at IC50 [1]: Yes

Structure (SMILES): O=c1cc(-c2ccc(O)cc2)oc2cc(O)c(O)c(O)c12 [Compound 62, Scutellarein]
- Toxicity at IC50 [1]: no

Structure (SMILES): O=C(O)c1ccc2ccc(/C=C/c3ccc(O)c(O)c3)nc2c1O [Compound 79, 2-(3,4-dihydroxystyryl)-8-hydroxyquinoline-7-carboxylic acid]
- Toxicity at IC50 [1]: No

Structure (SMILES): O=C(O)c1ccc2ccc(CCc3ccc(O)c(O)c3)nc2c1O [Compound 94, 2-(3,4-dihydroxyphenethyl)-8-hydroxyquinoline-7-carboxylic acid]
- Toxicity at IC50 [1]: No

Structure (SMILES): O=C(O)c1cc(/C=C/c2ccc3ccc(C(=O)O)c(O)c3n2)ccc1O [Compound 90, 2-(3-carboxy-4-hydroxystyryl)-8-hydroxyquinoline-7-carboxylic acid]
- Toxicity at IC50 [1]: No

Structure (SMILES): O=C(O)c1cc(Cc2ccc(O)c(C(=O)O)c2)ccc1O [Compound 30, 5,5′-Methylenedisalicylic acid]
- Toxicity at IC50 [1]: No

Structure (SMILES): COc1ccc2nc(O)c(-c3noc(-c4ccc(F)cc4)n3)cc2c1 [Compound 109, 3-(5-(4-Fluorophenyl)-1,2,4-oxadiazol-3-yl)-6-methoxyquinolin-2-ol]
- Solubility issue [5]: No

Structure (SMILES): O=c1c2[nH]c3ccccc3c2ncn1CCc1ccc(F)cc1 [Compound 105, 3-[2-(4-Fluorophenyl)ethyl]-3,5-dihydro-4H-pyrimido[5,4-b]indol-4-one]
- IC50 [2, 9]: 217 µM

Structure (SMILES): O=P(O)(O)c1ccc2ccc(CCc3ccc(O)c(O)c3)nc2c1O [Compound 100, 2-(3,4-dihydroxyphenethyl)-8-hydroxyquinoline-7-phosphonic acid]
- Toxicity at IC50 [1]: No

Structure (SMILES): CC(C)=CCc1c(O)ccc(C(=O)/C=C/c2ccc(O)c(O)c2)c1O [Compound 72, Corylifol B]
- Inhibitory activity present [2]: +++/ ++++

Structure (SMILES): O=C(NCc1ccc(F)cc1)C1C(=O)N(O)C(=O)c2cc(C(F)(F)F)ccc21 (stereo not shown) [Compound 112, 7-trifluoromethyl-N-(4-fluorobenzyl)-2-hydroxy-1,3-dioxo-4H-isoquinoline-4-carboxamide]
- NSP14/NSP10 complex inhibitory potential (gel) [3]: indeed novel NSP14 inhibitors
- lowering of the EC50 values of remdesivir [6]: ~5 fold
- lowering of the EC50 values of remdesivir [7]: ~5 fold

Structure (SMILES): CC(C)=CCc1c2c(c3occ(-c4ccc(O)c(O)c4)c(=O)c3c1O)C=CC(C)(C)O2 [Compound 69, Pomiferin]
- Toxicity at IC50 [8]: Yes

Structure (SMILES): COc1cc(O)c(CC=C(C)C)c(O)c1C(=O)/C=C/c1ccc(O)cc1 [Compound 58, Xanthohumol]
- Toxicity at IC50 [1]: yes

Structure (SMILES): CC(C)=CCc1cc(C(=O)/C=C/c2ccc(O)cc2)c(O)cc1O [Compound 57, Bavachalcone]
- Toxicity at IC50 [1]: yes

Structure (SMILES): O=C(/C=C/c1ccc(O)cc1)c1c(O)cc(O)cc1O [Compound 73, Naringenin chalcone]
- Toxicity at IC50 [1]: Yes

Structure (SMILES): O=C(O)c1ccc2ccc(/C=C/c3cc(Br)c(O)c(Br)c3)nc2c1O [Compound 88, 2-(3,5-dibromo-4-hydroxystyryl)-8-hydroxyquinoline-7-carboxylic acid]
- Toxicity at IC50 [1]: No

Structure (SMILES): O=C(/C=C/c1ccc(O)c(O)c1)c1ccc(O)c(O)c1O [Compound 76, Okanin]
- Toxicity at IC50 [1]: Yes

Structure (SMILES): O=C(O)c1ccc2ccc(/C=C/c3ccc(F)c(F)c3)nc2c1O [Compound 89, 2-(3,4-difluorostyryl)-8-hydroxyquinoline-7-carboxylic acid]
- Toxicity at IC50 [1]: Yes

Structure (SMILES): CC(C)=CCOc1ccc(/C=C/C(=O)c2ccc(OCC=C(C)C)cc2OCC(=O)O)cc1 [Sofalcone]
- IC50 [2, 10]: 28.8 µM

Structure (SMILES): O=C(O)c1cc2cc(-c3ccccc3)ccc2[nH]c1=O [Compound 53, 2-Oxo-6-phenyl-1H-quinoline-3-carboxylic acid]
- Toxicity at IC50 [1]: no

Structure (SMILES): CC(C)=CCc1c2c(c3occ(-c4ccc(O)c(O)c4)c(=O)c3c1O)C=CC(C)(C)O2 [Pomiferin]
- IC50 [2, 10]: 5.9 µM

Structure (SMILES): CC(C)=CCc1c(O)ccc(C(=O)/C=C/c2ccc(O)cc2)c1O [Isobavachalcone]
- IC50 [2, 10]: 16.6 µM

Structure (SMILES): CC1(C)CCc2c(O)ccc(C(=O)/C=C/c3ccc(O)cc3)c2O1 [Compound 75, Isodorsmanin A]
- Toxicity at IC50 [1]: Yes

Structure (SMILES): O=C(O)c1c(O)c(Cc2ccc(Cl)cc2)nc2c3c(ccc12)CCCC3 [Compound 59, 2-(4-Chlorobenzyl)-3-hydroxy-7,8,9,10-tetrahydrobenzo(H)quinoline-4-carboxylic acid]
- Toxicity at IC50 [1]: yes

Structure (SMILES): Cc1ccc2ccc(C(=O)O)c(O)c2n1 [Compound 78, 2-methyl-8-hydroxyquinoline-7-carboxylic acid]
- Toxicity at IC50 [1]: No
